Laboratory results reported in the supplement of paper PMC11061612.

How the values were obtained:
Assay in all cases: combination Emax (second highest fraction inhibited in the dose matrix, 72 h); higher = more inhibition; extreme values may be limits of the assay
[1] = tested on: SW1271 (Small Cell Lung Carcinoma)
How it was run: (§1)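 Cell lines grown in DMEM/F12 or RPMI with 10% FBS were plated in 1536-well plates and held 24 hours at 37°C, 5% CO2 before 72 hours of exposure to two-drug dose matrices, with DMSO typically at 0.2%. CellTiter-Glo 2.0 luminescence gave viability, which was converted to inhibition. Vehicle wells were set to 0 and blank wells to 1. Combination Emax is the second-highest inhibition in the matrix, and Bliss excess is the observed combination effect minus the expected EA + EB − EA·EB, where EA and EB are the single-agent effects.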

[2] = tested on: LB771-HNC (Head and Neck Carcinoma)
How it was run: as §1

SH-4 (Melanoma) = tested on: SH-4 (Melanoma)
How it was run: as §1

[3] = tested on: HARA (Squamous Cell Lung Carcinoma)
How it was run: as §1

[4] = tested on: OC-314 (Ovarian Carcinoma)
How it was run: as §1

[5] = tested on: SW1116 (Colorectal Carcinoma)
How it was run: as §1

[6] = tested on: CAPAN-1 (Pancreatic Carcinoma)
How it was run: as §1

HMV-II (Melanoma) = tested on: HMV-II (Melanoma)
How it was run: as §1

[7] = tested on: LoVo (Colorectal Carcinoma)
How it was run: as §1

Mewo (Melanoma) = tested on: Mewo (Melanoma)
How it was run: as §1

[8] = tested on: EN (Endometrial Carcinoma)
How it was run: as §1

[9] = tested on: KARPAS-231 (B-Cell Non-Hodgkin's Lymphoma)
How it was run: as §1

[10] = tested on: Hs-633T (Other Solid Carcinomas)
How it was run: as §1

[11] = tested on: MDA-MB-468 (Breast Carcinoma)
How it was run: as §1

[12] = tested on: CAL-51 (Breast Carcinoma)
How it was run: as §1

[13] = tested on: 639-V (Bladder Carcinoma)
How it was run: as §1

[14] = tested on: HO-1-u-1 (Oral Cavity Carcinoma)
How it was run: as §1

[15] = tested on: MHH-PREB-1 (B-Cell Non-Hodgkin's Lymphoma)
How it was run: as §1

COLO-829 (Melanoma) = tested on: COLO-829 (Melanoma)
How it was run: as §1

[16] = tested on: SU-DHL-6 (B-Cell Non-Hodgkin's Lymphoma)
How it was run: as §1

Structure (SMILES) | combination Emax [1] | combination Emax [2] | combination Emax (SH-4 (Melanoma)) | combination Emax [3] | combination Emax [4] | combination Emax [5] | combination Emax [6] | combination Emax (HMV-II (Melanoma)) | combination Emax [7] | combination Emax (Mewo (Melanoma)) | combination Emax [8] | combination Emax [9] | combination Emax [10] | combination Emax [11] | combination Emax [12] | combination Emax [13] | combination Emax [14] | combination Emax [15] | combination Emax (COLO-829 (Melanoma)) | combination Emax [16]
NC1(C(=O)N[C@@H](CCO)c2ccc(Cl)cc2)CCN(c2ncnc3[nH]ccc23)CC1 [Capivasertib] + CC(C)n1c(=O)n(C)c2cnc3cc(F)c(-c4ccc(OCCCN5CCCCC5)nc4)cc3c21 [AZD1390] (first compound max 10 µM, 7x7, partner max 0.3 µM) | 0.371 | 0.395 | 0.359 | 0.514 | 0.421 | 0.215 | 0.044 | 0.358 | 0.586 | 0.365 | 0.574 | 0.215 | 0.258 | 0.518 | 0.488 | 0.252 | 0.746 | 0.21 | 0.201 | 1
NC1(C(=O)N[C@@H](CCO)c2ccc(Cl)cc2)CCN(c2ncnc3[nH]ccc23)CC1 [Capivasertib] + CCN(CCO)CCCOc1ccc2c(Nc3cc(CC(=O)Nc4cccc(F)c4)[nH]n3)ncnc2c1 [AZD2811] (first compound max 10 µM, 7x7, partner max 1 µM) | 0.315 | 0.489 | 0.323 | 0.679 | 0.571 | 0.197 | 0.225 | 0.445 | 0.632 | 0.401 | 0.661 | 0.551 | 0.432 | 0.561 | 0.651 | 0.387 | 0.848 | 0.257 | 0.35 | 1
NC1(C(=O)N[C@@H](CCO)c2ccc(Cl)cc2)CCN(c2ncnc3[nH]ccc23)CC1 [Capivasertib] + COc1nnc2ccc(N3CCC(c4ccc(OCCN5CCN(C)C(=O)[C@H]5C)cc4)CC3)nn12 [AZD5153] (first compound max 10 µM, 7x7, partner max 1 µM) | 0.459 | 0.875 | 0.775 | 0.77 | 0.818 | 0.245 | 0.358 | 0.588 | 0.642 | 0.433 | 0.525 | 0.229 | 0.519 | 0.666 | 0.651 | 0.622 | 0.91 | 0.384 | 0.272 | 1
NC1(C(=O)N[C@@H](CCO)c2ccc(Cl)cc2)CCN(c2ncnc3[nH]ccc23)CC1 [Capivasertib] + C[C@@H]1COCCN1C2=NC(=NC(=C2)C3(CC3)[S@](=N)(=O)C)C4=C5C=CNC5=NC=C4 [AZD6738] (first compound max 10 µM, 7x7, partner max 10 µM) | 0.512 | 0.674 | 0.492 | 0.868 | 0.793 | 0.227 | 0.364 | 0.465 | 0.801 | 0.557 | 0.71 | 0.691 | 0.894 | 0.726 | 0.936 | 0.496 | 0.887 | 0.749 | 0.563 | 1
NC1(C(=O)N[C@@H](CCO)c2ccc(Cl)cc2)CCN(c2ncnc3[nH]ccc23)CC1 [Capivasertib] + Cn1cnc2c(F)c(Nc3ccc(Br)cc3Cl)c(C(=O)NOCCO)cc21 [Selumetinib] (first compound max 10 µM, 7x7, partner max 10 µM) | 0.674 | 0.51 | 0.909 | 0.607 | 0.604 | 0.453 | 0.476 | 0.838 | 0.717 | 0.589 | 0.646 | 0.0035 | 0.633 | 0.741 | 0.596 | 0.366 | 0.878 | 0.205 | 0.818 | 1
Cc1nc(Nc2ncc(C(=O)Nc3c(C)cccc3Cl)s2)cc(N2CCN(CCO)CC2)n1 [Dasatinib] + CC(=O)Nc1cccc(-n2c(=O)n(C3CC3)c(=O)c3c(Nc4ccc(I)cc4F)n(C)c(=O)c(C)c32)c1 [Trametinib] (first compound max 2 µM, 7x7, partner max 1 µM) | 0.928 | 0.202 | 0.935 | 0.531 | 0.781 | 0.757 | 0.615 | 0.786 | 0.801 | 0.589 | 0.289 | 0.476 | 0.939 | 0.621 | 0.43 | 0.466 | 0.713 | 0.0875 | 0.672 | 1
COc1cccc2c1C(=O)c1c(O)c3c(c(O)c1C2=O)C[C@@](O)(C(=O)CO)C[C@@H]3O[C@H]1C[C@H](N)[C@H](O)[C@H](C)O1 [Doxorubicin] + Cc1cc2ncnn2cc1Nc1ncc2c(n1)n(C1CCOCC1)c(=O)n2C [AZD7648] (first compound max 1 µM, 7x7, partner max 10 µM) | 0.768 | 0.193 | 0.588 | 0.808 | 1 | 0.146 | 0.511 | 0.907 | 0.688 | 0.599 | 0.735 | 0.956 | 0.932 | 0.638 | 0.936 | 0.98 | 0.832 | 0.974 | 0.73 | 0.989
CS(=O)(=O)CCNCc1ccc(-c2ccc3ncnc(Nc4ccc(OCc5cccc(F)c5)c(Cl)c4)c3c2)o1 [Lapatinib] + C[C@@H](Oc1cc(-c2cnn(C3CCNCC3)c2)cnc1N)c1c(Cl)ccc(F)c1Cl [Crizotinib] (first compound max 10 µM, 7x7, partner max 10 µM) | 0.529 | 0.854 | 0.883 | 0.95 | 0.881 | 0.688 | 0.527 | 0.912 | 0.708 | 0.537 | 0.559 | 0.57 | 0.934 | 0.959 | 0.691 | 0.853 | 0.961 | 0.96 | 0.711 | 0.983
CC(=O)c1c(C)c2cnc(Nc3ccc(N4CCNCC4)cn3)nc2n(C2CCCC2)c1=O [Palbociclib] + CC1(C)CCC(CN2CCN(c3ccc(C(=O)NS(=O)(=O)c4ccc(NCC5CCOCC5)c([N+](=O)[O-])c4)c(Oc4cnc5[nH]ccc5c4)c3)CC2)=C(c2ccc(Cl)cc2)C1 [Venetoclax] (first compound max 10 µM, 7x7, partner max 1 µM) | 0.214 | 0.149 | 0.271 | 0.496 | 0.334 | 0.04 | 0.21 | 0.494 | 0.484 | 0.437 | 0.146 | 0.889 | 0.49 | 0.261 | 0.219 | 0.147 | 0.271 | 0.412 | 0.298 | 0.976
CC(=O)c1c(C)c2cnc(Nc3ccc(N4CCNCC4)cn3)nc2n(C2CCCC2)c1=O [Palbociclib] + Cc1c2c(nn1C)CSCc1cc(n(C)n1)CSc1cc(c3ccccc3c1)OCCCc1c(C(=O)O)n(C)c3c-2c(Cl)ccc13 [AZD5991] (first compound max 10 µM, 7x7, partner max 1 µM) | 0.301 | 0.448 | 0.314 | 0.559 | 0.334 | 0.164 | 0.245 | 0.625 | 0.557 | 0.569 | 0.566 | 0.657 | 0.519 | 0.463 | 0.357 | 0.269 | 0.367 | 0.511 | 0.388 | 1
CC(=O)c1c(C)c2cnc(Nc3ccc(N4CCNCC4)cn3)nc2n(C2CCCC2)c1=O [Palbociclib] + Cn1cnc2c(F)c(Nc3ccc(Br)cc3Cl)c(C(=O)NOCCO)cc21 [Selumetinib] (first compound max 10 µM, 7x7, partner max 10 µM) | 0.428 | 0.194 | 0.886 | 0.499 | 0.478 | 0.396 | 0.382 | 0.809 | 0.679 | 0.485 | 0.184 | 0.264 | 0.599 | 0.441 | 0.289 | 0.259 | 0.465 | 0.445 | 0.614 | 0.806
COc1cccc(OCCCN)c1-c1cc(Nc2cnc(C#N)cn2)n[nH]1 [Prexasertib] + C=CCn1c(=O)c2cnc(Nc3ccc(N4CCN(C)CC4)cc3)nc2n1-c1cccc(C(C)(C)O)n1 [AZD1775] (first compound max 1 µM, partner max 1 µM) | 0.699 | 0.622 | 0.742 | 0.984 | 0.98 | 0.63 | 0.577 | 0.708 | 0.894 | 0.599 | 0.859 | 0.989 | 0.973 | 0.645 | 0.95 | 0.805 | 0.986 | 0.977 | 0.237 | 0.955
COc1cccc(OCCCN)c1-c1cc(Nc2cnc(C#N)cn2)n[nH]1 [Prexasertib] + CCc1c2c(nc3ccc(O)cc13)-c1cc3c(c(=O)n1C2)COC(=O)[C@]3(O)CC [SN-38] (first compound max 1 µM, 7x7, partner max 0.3 µM) | 0.769 | 0.647 | 0.684 | 0.966 | 1 | 0.763 | 0.809 | 0.669 | 0.847 | 0.721 | 0.75 | 1 | 0.814 | 0.817 | 0.901 | 1 | 0.996 | 0.96 | 0.662 | 0.991
